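Each compound was tested at five concentrations against cells in 96-well plates for 48 hours. GI50 = concentration required for 50% inhibition of growth. TGI marks complete inhibition of growth.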

From PubChem BioAssay (NCI) come the findings set out here.

Holding throughout (test): NCI tumour cell line growth inhibition, 48 h
Experiment [1] deals with A549 NSCLC.
Experiment [2] deals with HOP-62 NSCLC.
The subject of experiment [3] is HT29 colon.
Experiment [4] concerns M14 melanoma.
The test system of experiment [5] is MALME-3M melanoma.
For experiment [6], the system named is MOLT-4 leukemia.
In experiment [7] the test system is OVCAR-3 ovarian.
Experiment [8] deals with SK-MEL-5 melanoma.
Experiment [9] concerns SN12C renal.
Experiment [10] has as its system SW-620 colon.

`COc1cc([C@@H]2c3cc4c(cc3[C@H](OC3OC5COC(C(C)C)OC5C(O)C3O)C3COC(=O)[C@@H]32)OCO4)cc(OC)c1OC` (stereo not given in full): the TGI is greater than 100 µM in [1]; 25.4 µM in [2]; 7.11 µM in experiment [3]; greater than 33 µM in experiment [4]; 30.5 µM in experiment [5]; greater than 68.4 µM in experiment [6]. In addition, the TGI in experiment [7] was 8.55 µM; in experiment [8], 20.4 µM; in [9], greater than 100 µM; in [10], greater than 100 µM.

For `C1=Nc2ccc(cc2)-c2ccc(cc2)N=Cc2ccccc2OCc2cccc(n2)COc2ccccc21`, the TGI in experiment [1] was greater than 100 µM; in [2], 20.1 µM; in experiment [3] it was greater than 100 µM; in experiment [4], greater than 100 µM; in experiment [5], greater than 100 µM; in experiment [6], greater than 100 µM. Also, the TGI in experiment [7], in experiment [8], in experiment [9] and in experiment [10] was greater than 100 µM throughout.

With `COC(=O)C1=C(C(=O)OC)SC2(S1)C(C(=O)OC)=C(C(=O)OC)Sc1c2ssc1=O`, the TGI in experiment [1] was 31 µM; in experiment [2], 4.53 µM; in [3], 1.78 µM; in [4] it was 3.88 µM; in experiment [5] it was 1.55 µM; in experiment [6], 0.843 µM. For the same molecule, the TGI in [7] is 2.38 µM; in experiment [8], 2.59 µM; in experiment [9] it was 2.96 µM; in experiment [10], 2.47 µM.

For the molecule `Cc1ccc(S(=O)(=O)N(CC(O)COc2ccccc2)c2ccccc2Cl)cc1` (stereo not given), the TGI is 27.9 µM in experiment [1]; 34.8 µM in [2]; 31.9 µM in experiment [3]; 31 µM in [4]; 29.2 µM in experiment [5]; 52.9 µM in experiment [6]. The TGI in experiment [7] was 42.1 µM; in [8] it was 27.8 µM; in experiment [9], 29.4 µM; in [10], 36.6 µM.

Regarding `COC(=O)c1cc(NC(=O)Cn2c3ccccc3c3ccccc32)cn1C`, the TGI in experiment [1] was greater than 100 µM; in experiment [2], 50.6 µM; in experiment [3], greater than 100 µM; in experiment [4] it was greater than 100 µM; in [5], greater than 100 µM; in experiment [6], greater than 100 µM. Also, the TGI in experiment [7], in experiment [8], in experiment [9] and in experiment [10] was greater than 100 µM throughout.

`O=C(/C=C/c1cc2ccccc2[nH]c1=O)c1ccc(O)cc1`: the GI50 in experiment [1] was 2.73 µM; in experiment [2] it was 2.62 µM; in experiment [3], 3.61 µM; in [4], 2.6 µM; in experiment [5] it was 10.4 µM; in [6] it was 3.04 µM. The GI50 is 3.22 µM in experiment [7], 3.98 µM in [8], 3.48 µM in [9] and 1.89 µM in experiment [10]. For the same molecule, the TGI in experiment [1] came to 11.8 µM; in [2], 8.18 µM; in experiment [3] it was 12.1 µM; in [4], 6.57 µM; in [5], 33.6 µM; in experiment [6], 9.91 µM. The TGI was 11.8 µM in experiment [7], 13.3 µM in [8], 16 µM in experiment [9] and 4.45 µM in [10].

Take `COc1cc2c(cc1OC)C/C(=N\O)c1cc(OC)c(OC)cc1/C=C\2`: the TGI in experiment [1] was greater than 100 µM; in [2], greater than 27 µM; in experiment [3] it was 15.4 µM; in [4] it was 27.2 µM; in experiment [5], 9.9 µM; in [6] it was greater than 85 µM. The TGI in experiment [7] was 17.3 µM; in experiment [8], 8.26 µM; in experiment [9] it was greater than 100 µM; in [10] it was greater than 90.6 µM.

On to `CCc1c[n+]2c(cc1C1=CN3c4ccccc4[C@]45CCN6C/C(=C/CO)[C@H](C[C@H]64)[C@@H]([C@@H]1O)[C@H]35)-c1[nH]c3ccccc3c1CC2`, for which the TGI in experiment [1], in experiment [2], in [3], in experiment [4], in experiment [5] and in [6] was greater than 50 µM in each case. The TGI in experiment [7], in [8], in experiment [9] and in experiment [10] was greater than 50 µM each time.

Take `CCOP(=O)(OCC)C(Cc1cn(S(=O)(=O)c2ccc(C)cc2)cn1)C(=O)O` (stereo not given): the TGI in [1], in experiment [2], in experiment [3], in experiment [4], in experiment [5] and in experiment [6] was greater than 100 µM throughout. The TGI in experiment [7], in experiment [8], in experiment [9] and in experiment [10] was greater than 100 µM throughout.

As for `c1ccc(C2SCc3nc4ccccc4n32)cc1` (stereo not given), the TGI in [1], in experiment [2], in experiment [3], in experiment [4], in experiment [5] and in experiment [6] was greater than 100 µM each time. In addition, the TGI in [7] is 54.5 µM; in experiment [8], 56.4 µM; in [9] it was greater than 100 µM; in experiment [10], greater than 100 µM.

Consider `O=C(NC12CC3CC(CC(C3)C1)C2)n1cnc2c(Cl)ncnc21`, for which the TGI in [1] is greater than 100 µM; in experiment [2], greater than 100 µM; in experiment [3], 70.3 µM; in experiment [4] it was 50.7 µM; in [5], greater than 100 µM; in experiment [6], 52.2 µM. For the same molecule, the TGI is 51.3 µM in experiment [7], 53.5 µM in [8], greater than 100 µM in experiment [9] and greater than 100 µM in experiment [10].

Turning to `c1ccc(C(OCCN2CC3CCC(C2)N3)c2ccccc2)cc1`, the TGI in experiment [1] is greater than 100 µM; in experiment [2], greater than 100 µM; in [3] it was greater than 100 µM; in experiment [4], 32.3 µM; in experiment [5], 30.5 µM; in experiment [6] it was greater than 100 µM. The TGI in [7] was greater than 100 µM; in experiment [8] it was 36.1 µM; in experiment [9], greater than 100 µM; in experiment [10], greater than 100 µM.

For `CN1C(=O)c2c(c3c4ccccc4n(C)c3c3c2c2ccccc2n3C)C1=O`, the TGI in [1], in experiment [2], in experiment [3], in experiment [4], in [5] and in experiment [6] was greater than 100 µM each time. Moreover, the TGI in [7], in experiment [8], in experiment [9] and in [10] was greater than 100 µM each time.

As for `COc1c(C(=O)CC2c3c(cc4oc(C)cc(=O)c4c3OC)OC(=N)C2c2nc3ccccc3[nH]2)c(O)c(OC)c2occc12` (stereo not given), the TGI in [1], in [2], in experiment [3], in experiment [4], in experiment [5] and in experiment [6] was greater than 100 µM throughout. For the same molecule, the TGI in experiment [7], in [8], in experiment [9] and in experiment [10] was greater than 100 µM each time.

For the molecule `O=S1(=O)OCCOS(=O)(=O)C1C1c2ccccc2-c2ccccc21`, the TGI in experiment [1] was greater than 100 µM; in [2], greater than 100 µM; in [3], greater than 100 µM; in experiment [4] it was greater than 100 µM; in [5], greater than 100 µM; in [6], 48.2 µM. Moreover, the TGI in [7], in experiment [8], in [9] and in experiment [10] was greater than 100 µM each time.

As to `O=C1C(Nc2ccc(S(=O)(=O)Nc3cnc4ccccc4n3)cc2)=CC(=Nc2ccc(S(=O)(=O)Nc3cnc4ccccc4n3)cc2)c2ccccc21`, the TGI in [1] is 38 µM; in experiment [2], 34.8 µM; in experiment [3] it was 36.3 µM; in experiment [4] it was 33.7 µM; in experiment [5], 33.8 µM; in [6], 71.2 µM. Besides, the TGI in experiment [7] came out at 47.6 µM; in experiment [8] it was 31.5 µM; in [9] it was 30.6 µM; in experiment [10], 32.1 µM.

As for `CN(C)CCNC(=O)c1cccc2c(NC(CCCN=C(N)N)C(=O)O)c3ccccc3nc12` (stereo not given), the TGI in experiment [1] was greater than 100 µM; in experiment [2] it was 90.8 µM; in [3], 14.1 µM; in [4], greater than 100 µM; in experiment [5], 23.4 µM; in experiment [6], greater than 100 µM. The TGI in experiment [7], in experiment [8], in experiment [9] and in [10] was greater than 100 µM in each case.

For the molecule `Cn1c(SCc2ccc([N+](=O)[O-])cc2)nnc1C12CC3CC(CC(C3)C1)C2`, the TGI in experiment [1], in [2], in experiment [3], in experiment [4], in experiment [5] and in [6] was greater than 10 µM throughout. The TGI in [7], in [8], in experiment [9] and in [10] was greater than 10 µM throughout.

For the molecule `CC(NC(=O)C(NC(=O)C(NC(=O)C(F)(F)F)C(C)C)C(C)C)C(=O)Oc1c(Cl)c(Cl)c(Cl)c(Cl)c1Cl` (stereo not given), the TGI in experiment [1], in experiment [2], in experiment [3], in [4], in experiment [5] and in experiment [6] was greater than 100 µM in each case. The TGI in experiment [7], in [8], in experiment [9] and in [10] was greater than 100 µM each time.

`CN(CCCNC(=O)c1[nH]nc2c1ccc1ccccc12)CCCNC(=O)c1[nH]nc2c1ccc1ccccc12`: the TGI in [1] stood at 37.6 µM; in experiment [2] it was 34.6 µM; in experiment [3], 34.6 µM; in experiment [4] it was 20.1 µM; in [5], 22.4 µM; in experiment [6], 26.2 µM. Besides, the TGI in [7] is 29 µM; in experiment [8], 17 µM; in [9], 30.1 µM; in experiment [10], 35.2 µM.

For `COC(=O)C12CCC(CC1=O)C2(C)C` (stereo not given), the TGI in experiment [1], in experiment [2], in [3], in experiment [4], in experiment [5] and in experiment [6] was greater than 100 µM throughout. For the same molecule, the TGI in experiment [7], in experiment [8], in experiment [9] and in [10] was greater than 100 µM each time.

Consider `C=c1c2ccccc2oc2nc3[nH]c(N)c(C#N)c(N)c3c(=N)c12`, for which the TGI is greater than 100 µM in experiment [1]; greater than 100 µM in [2]; 80.8 µM in experiment [3]; greater than 100 µM in [4]; 78.7 µM in experiment [5]; 89.2 µM in experiment [6]. In addition, the TGI in experiment [7] is 43.3 µM; in experiment [8] it was 57.2 µM; in experiment [9], greater than 100 µM; in experiment [10], greater than 100 µM.

With `COc1ccc2cc(CNCCOCCOCCNCc3ccc4cc(OC)ccc4c3)ccc2c1`, the TGI in experiment [1] stood at 3.12 µM; in experiment [2], 3.87 µM; in experiment [3] it was 0.394 µM; in [4], 0.687 µM; in experiment [5] it was 2.83 µM; in experiment [6], 2.44 µM. Further, the TGI in experiment [7] was 3.54 µM; in [8], 1.81 µM; in experiment [9], 3.85 µM; in experiment [10], 3.69 µM.

Take `OC[C@H](O)[C@@H](OCc1ccccc1)[C@H](NCc1ccccc1)c1cccs1`: the TGI in experiment [1], in experiment [2], in experiment [3], in experiment [4], in [5] and in experiment [6] was greater than 100 µM in each case. Further, the TGI in [7], in experiment [8], in experiment [9] and in [10] was greater than 100 µM throughout.

Take `CCOC(=O)C(NS(=O)(=O)c1ccccc1)(C(F)(F)F)P(=O)(OCC(C)C)OCC(C)C` (stereo not given): the TGI in [1], in experiment [2], in experiment [3], in experiment [4], in [5] and in [6] was greater than 100 µM throughout. Also, the TGI in [7], in experiment [8], in [9] and in experiment [10] was greater than 100 µM in each case.
